In the NIST ThermoML archive (doi:10.1016/j.jct.2012.06.031):

Experiments:
[1] = 101 kPa, Liquid; for viscosity: Concentric cylinders viscometry; for mass density: Vibrating tube method
[2] = refractive index (Na D-line) (dimensionless); conditions: 101.33 kPa, Liquid, Standard Abbe refractometry
[3] = xn = mol fraction of the nth substance listed; conditions: 101 kPa, Liquid; for viscosity: Concentric cylinders viscometry; for mass density: Vibrating tube method
[4] = refractive index (Na D-line) (dimensionless); xn = mol fraction of the nth substance listed; conditions: 101 kPa, Liquid, Standard Abbe refractometry

CC(O)CO (stereo unspecified) [1,2-propanediol]
Conditions	mass density, [1] [kg/m3]	refractive index, [2]	viscosity, [1] [mPa·s]
288.15 K	1040.08	1.43411	81.21
293.15 K	1036.46	1.43247	58.75
298.15 K	1032.8	1.43081	43.44
303.15 K	1029.09	1.42915	32.75
308.15 K	1025.34	1.42751	25.16
313.15 K	1021.55	1.42581	19.65
318.15 K	1017.73	1.42407	15.58
323.15 K	1013.86	1.4223	12.55

OCC(O)CO [glycerol]
Conditions	mass density, [1] [kg/m3]	refractive index, [2]	viscosity, [1] [mPa·s]
288.15 K	1264.08	1.47552	2298.3
293.15 K	1261.03	1.47427	1425.1
298.15 K	1257.94	1.47301	911.98
303.15 K	1254.83	1.47175	600.83
308.15 K	1251.68	1.47048	406.93
313.15 K	1248.48	1.4692	282.61
318.15 K	1245.24	1.46791	201.03
323.15 K	1242.08	1.46674	147.15

OCC(O)CO [glycerol] + c1ccncc1
x2 = 0
Conditions	mass density, [3] [kg/m3]	refractive index, [4]	viscosity, [3] [mPa·s]
288.15 K	1264.08	1.47552	2298.3
293.15 K	1261.03	1.47427	1425.1
298.15 K	1257.94	1.47301	911.98
303.15 K	1254.83	1.47175	600.83
308.15 K	1251.68	1.47048	406.93
313.15 K	1248.48	1.4692	282.61
318.15 K	1245.24	1.46791	201.03
323.15 K	1242.08	1.46674	147.15

OCCCO [propan-1,3-diol]
Conditions	mass density, [1] [kg/m3]	refractive index, [2]	viscosity, [1] [mPa·s]
288.15 K	1056.12	1.44089	66.53
293.15 K	1053.02	1.43947	51.91
298.15 K	1049.91	1.43805	41.04
303.15 K	1046.79	1.43665	32.84
308.15 K	1043.64	1.43526	26.58
313.15 K	1040.49	1.43387	21.74
318.15 K	1037.31	1.43244	17.95
323.15 K	1034.12	1.43099	14.96

CCCO [propan-1-ol]
Conditions	mass density, [1] [kg/m3]	refractive index, [2]	viscosity, [1] [mPa·s]
288.15 K	807.947	1.3878	2.514
293.15 K	803.963	1.38576	2.208
298.15 K	799.953	1.38369	1.95
303.15 K	795.915	1.38162	1.727
308.15 K	791.84	1.37918	1.542
313.15 K	787.721	1.37695	1.378
318.15 K	783.553	1.37469	1.236
323.15 K	779.334	1.37231	1.124

CCCO [propan-1-ol] + c1ccncc1
x2 = 0
Conditions	mass density, [3] [kg/m3]	refractive index, [4]	viscosity, [3] [mPa·s]
288.15 K	807.947	1.3878	2.514
293.15 K	803.963	1.38576	2.208
298.15 K	799.953	1.38369	1.95
303.15 K	795.915	1.38162	1.727
308.15 K	791.84	1.37918	1.542
313.15 K	787.721	1.37695	1.378
318.15 K	783.553	1.37469	1.236
323.15 K	779.334	1.37231	1.124

c1ccncc1 [pyridine]
Conditions	mass density, [1] [kg/m3]	refractive index, [2]	viscosity, [1] [mPa·s]
288.15 K	988.061	1.51184	1.03
293.15 K	983.038	1.509	0.9588
298.15 K	978.006	1.50616	0.8943
303.15 K	972.967	1.50331	0.8355
308.15 K	967.913	1.50048	0.7837
313.15 K	962.849	1.49769	0.7354
318.15 K	957.769	1.49493	0.6912
323.15 K	952.673	1.49219	0.6507

c1ccncc1 [pyridine] + CC(O)CO
x1 = 1
Conditions	mass density, [3] [kg/m3]	refractive index, [4]	viscosity, [3] [mPa·s]
288.15 K	988.061	1.51184	1.03
293.15 K	983.038	1.509	0.9588
298.15 K	978.006	1.50616	0.8943
303.15 K	972.967	1.50331	0.8355
308.15 K	967.913	1.50048	0.7837
313.15 K	962.849	1.49769	0.7354
318.15 K	957.769	1.49493	0.6912
323.15 K	952.673	1.49219	0.6507

c1ccncc1 [pyridine] + OCCCO
x1 = 1
Conditions	mass density, [3] [kg/m3]	refractive index, [4]	viscosity, [3] [mPa·s]
288.15 K	988.061	1.51184	1.03
293.15 K	983.038	1.509	0.9588
298.15 K	978.006	1.50616	0.8943
303.15 K	972.967	1.50331	0.8355
308.15 K	967.913	1.50048	0.7837
313.15 K	962.849	1.49769	0.7354
318.15 K	957.769	1.49493	0.6912
323.15 K	952.673	1.49219	0.6507
